What was measured:
Format in all cases: in vivo
[1] = system: transplanted Oryza sativa; assay: Test Example 1: effect on crop, application before weed generation in submerged conditions; details: Application herbicide amount 320 g/ha; Seventeenth Table
How it was run: (§1)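 Pre-emergence water-surface application under 4 cm flooding, same day as sowing, with rice transplanted at 2.5 leaf stage. Dose given as g/ha. Plants grown at 25° C. to 30° C. and rated three weeks later on a 0 (≤5%) to 5 (≥90%) herbicidal-ratio scale.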

[2] = system: directly sowed Oryza sativa; assay: Test Example 3: effect on crop by application to foliage (Wagner pot, water depth 0.1-0.5 cm); details: Nineteenth Table, application to foliage
How it was run: (§2)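 Grading uses six bands of herbicidal ratio, from 0 (≤5%, almost no effect) to 5 (≥90%, almost completely withered). Treatment was a stem-and-leaf spray of diluted emulsion at a fixed g/ha on 14-day-old plants; evaluation after three weeks.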

[3] = system: Echinochloa oryzacola Vasing.; assay: Test Example 1: herbicidal activity, application before weed generation in submerged conditions; details: Application herbicide amount 320 g/ha; Seventeenth Table
How it was run: as §1

Scirpus juncoides = assay: as above; details: Application herbicide amount 320 g/ha; Seventeenth Table
How it was run: as §1

Monochoria vaginalis = assay: as above; details: Application herbicide amount 320 g/ha; Seventeenth Table
How it was run: as §1

Leptochloa chinensis = assay: Test Example 3: herbicidal effect by application to foliage (Wagner pot, water depth 0.1-0.5 cm); details: Nineteenth Table, application to foliage
How it was run: as §2

[4] = system: Echinochloa crus-galli var. crus-galli; assay: as above; details: Nineteenth Table, application to foliage
How it was run: as §2

Cyperus difformis = assay: as above; details: Nineteenth Table, application to foliage
How it was run: as §2

[5] = application herbicide amount 320 g/ha
[6] = application herbicide amount 200 g/ha

Compound | a: transplanted Oryza sativa (effect on crop grade) [1] | b (effect on crop grade) [2, 5] | A: Echinochloa oryzicola Vasing. (herbicidal effect grade) [3] | B: Scirpus juncoides (herbicidal effect grade) (Scirpus juncoides) | C: Monochoria vaginalis (herbicidal effect grade) (Monochoria vaginalis) | D (herbicidal effect grade) (Leptochloa chinensis; [5]) | H (herbicidal effect grade) [4, 5] | E (herbicidal effect grade) (Cyperus difformis; [5]) | b (effect on crop grade) [2, 6] | D (herbicidal effect grade) (Leptochloa chinensis; [6]) | H (herbicidal effect grade) [4, 6] | E (herbicidal effect grade) (Cyperus difformis; [6])
Cn1nnnc1NC(=O)c1ccc(C(F)(F)F)n2cnnc12 [2-001] | 0 (Herbicidal ratio of 5% or less (almost no effect)) | 1 (Herbicidal ratio of 5% or more and less than 20%) | 2 (Herbicidal ratio of 20% or more and less than 40%) | 3 (Herbicidal ratio of 40% or more and less than 70%) | 4 (Herbicidal ratio of 70% or more and less than 90%) | 4 (Herbicidal ratio of 70% or more and less than 90%) | 4 (Herbicidal ratio of 70% or more and less than 90%) | 3 (Herbicidal ratio of 40% or more and less than 70%) |  |  |  | 
Cc1nnc2c(C(=O)Nc3nnnn3C)ccc(C(F)(F)F)n12 [2-002] | 0 (Herbicidal ratio of 5% or less (almost no effect)) | 2 (Herbicidal ratio of 20% or more and less than 40%) | 2 (Herbicidal ratio of 20% or more and less than 40%) | 3 (Herbicidal ratio of 40% or more and less than 70%) | 3 (Herbicidal ratio of 40% or more and less than 70%) | 4 (Herbicidal ratio of 70% or more and less than 90%) | 5 (Herbicidal ratio of 90% or more (almost completely withered)) | 2 (Herbicidal ratio of 20% or more and less than 40%) |  |  |  | 
CC(C)c1nnc2c(C(=O)Nc3nnnn3C)ccc(C(F)(F)F)n12 [2-003] | 4 (Herbicidal ratio of 70% or more and less than 90%) |  | 5 (Herbicidal ratio of 90% or more (almost completely withered)) | 5 (Herbicidal ratio of 90% or more (almost completely withered)) | 5 (Herbicidal ratio of 90% or more (almost completely withered)) |  |  |  | 0 (Herbicidal ratio of 5% or less (almost no effect)) | 5 (Herbicidal ratio of 90% or more (almost completely withered)) | 5 (Herbicidal ratio of 90% or more (almost completely withered)) | 5 (Herbicidal ratio of 90% or more (almost completely withered))
Cn1nnnc1NC(=O)c1ccc(C(F)(F)F)n2c(CS(C)(=O)=O)nnc12 [2-034] | 4 (Herbicidal ratio of 70% or more and less than 90%) | 5 (Herbicidal ratio of 90% or more (almost completely withered)) | 5 (Herbicidal ratio of 90% or more (almost completely withered)) | 4 (Herbicidal ratio of 70% or more and less than 90%) | 4 (Herbicidal ratio of 70% or more and less than 90%) | 5 (Herbicidal ratio of 90% or more (almost completely withered)) | 5 (Herbicidal ratio of 90% or more (almost completely withered)) | 5 (Herbicidal ratio of 90% or more (almost completely withered)) |  |  |  | 
Cn1nnnc1NC(=O)c1ccc(C(F)(F)F)n2c(C[S+]([O-])CC(F)(F)F)nnc12 (centres unmarked) [2-035] | 4 (Herbicidal ratio of 70% or more and less than 90%) | 5 (Herbicidal ratio of 90% or more (almost completely withered)) | 4 (Herbicidal ratio of 70% or more and less than 90%) | 3 (Herbicidal ratio of 40% or more and less than 70%) | 3 (Herbicidal ratio of 40% or more and less than 70%) | 5 (Herbicidal ratio of 90% or more (almost completely withered)) | 5 (Herbicidal ratio of 90% or more (almost completely withered)) | 4 (Herbicidal ratio of 70% or more and less than 90%) |  |  |  | 
Cn1nnnc1NC(=O)c1ccc(C(F)(F)F)n2c(S(C)(=O)=O)nnc12 [2-037] | 4 (Herbicidal ratio of 70% or more and less than 90%) | 5 (Herbicidal ratio of 90% or more (almost completely withered)) | 5 (Herbicidal ratio of 90% or more (almost completely withered)) | 5 (Herbicidal ratio of 90% or more (almost completely withered)) | 5 (Herbicidal ratio of 90% or more (almost completely withered)) | 5 (Herbicidal ratio of 90% or more (almost completely withered)) | 5 (Herbicidal ratio of 90% or more (almost completely withered)) | 5 (Herbicidal ratio of 90% or more (almost completely withered)) |  |  |  | 
CCS(=O)(=O)c1nnc2c(C(=O)Nc3nnnn3C)ccc(C(F)(F)F)n12 [2-038] | 4 (Herbicidal ratio of 70% or more and less than 90%) | 5 (Herbicidal ratio of 90% or more (almost completely withered)) | 5 (Herbicidal ratio of 90% or more (almost completely withered)) | 5 (Herbicidal ratio of 90% or more (almost completely withered)) | 5 (Herbicidal ratio of 90% or more (almost completely withered)) | 5 (Herbicidal ratio of 90% or more (almost completely withered)) | 5 (Herbicidal ratio of 90% or more (almost completely withered)) | 5 (Herbicidal ratio of 90% or more (almost completely withered)) |  |  |  | 
CCOC(=O)Cc1nnc2c(C(=O)Nc3nnnn3C)ccc(C(F)(F)F)n12 [2-040] | 4 (Herbicidal ratio of 70% or more and less than 90%) | 4 (Herbicidal ratio of 70% or more and less than 90%) | 4 (Herbicidal ratio of 70% or more and less than 90%) | 4 (Herbicidal ratio of 70% or more and less than 90%) | 4 (Herbicidal ratio of 70% or more and less than 90%) |  | 4 (Herbicidal ratio of 70% or more and less than 90%) | 5 (Herbicidal ratio of 90% or more (almost completely withered)) |  |  |  | 
COCCn1nnnc1NC(=O)c1ccc(C(F)(F)F)n2c(C(C)C)nnc12 [2-041] | 0 (Herbicidal ratio of 5% or less (almost no effect)) | 3 (Herbicidal ratio of 40% or more and less than 70%) | 5 (Herbicidal ratio of 90% or more (almost completely withered)) | 5 (Herbicidal ratio of 90% or more (almost completely withered)) | 4 (Herbicidal ratio of 70% or more and less than 90%) | 5 (Herbicidal ratio of 90% or more (almost completely withered)) | 5 (Herbicidal ratio of 90% or more (almost completely withered)) | 5 (Herbicidal ratio of 90% or more (almost completely withered)) |  |  |  | 
Cc1ccc(-c2nnc3c(C(=O)Nc4nnnn4C)ccc(C(F)(F)F)n23)cc1 [2-042] | 5 (Herbicidal ratio of 90% or more (almost completely withered)) | 5 (Herbicidal ratio of 90% or more (almost completely withered)) | 5 (Herbicidal ratio of 90% or more (almost completely withered)) | 4 (Herbicidal ratio of 70% or more and less than 90%) | 4 (Herbicidal ratio of 70% or more and less than 90%) | 5 (Herbicidal ratio of 90% or more (almost completely withered)) | 5 (Herbicidal ratio of 90% or more (almost completely withered)) | 5 (Herbicidal ratio of 90% or more (almost completely withered)) |  |  |  | 
Cn1nnnc1NC(=O)c1ccc(C(F)(F)F)n2c(-c3ccc(F)cc3)nnc12 [2-043] | 4 (Herbicidal ratio of 70% or more and less than 90%) | 5 (Herbicidal ratio of 90% or more (almost completely withered)) | 5 (Herbicidal ratio of 90% or more (almost completely withered)) | 5 (Herbicidal ratio of 90% or more (almost completely withered)) | 5 (Herbicidal ratio of 90% or more (almost completely withered)) | 5 (Herbicidal ratio of 90% or more (almost completely withered)) | 5 (Herbicidal ratio of 90% or more (almost completely withered)) | 5 (Herbicidal ratio of 90% or more (almost completely withered)) |  |  |  | 
COc1cccc(-c2nnc3c(C(=O)Nc4nnnn4C)ccc(C(F)(F)F)n23)c1 [2-044] | 4 (Herbicidal ratio of 70% or more and less than 90%) | 5 (Herbicidal ratio of 90% or more (almost completely withered)) | 5 (Herbicidal ratio of 90% or more (almost completely withered)) | 5 (Herbicidal ratio of 90% or more (almost completely withered)) | 5 (Herbicidal ratio of 90% or more (almost completely withered)) | 5 (Herbicidal ratio of 90% or more (almost completely withered)) | 5 (Herbicidal ratio of 90% or more (almost completely withered)) | 5 (Herbicidal ratio of 90% or more (almost completely withered)) |  |  |  | 

— patent US9708314B2, “Heterocyclic amide compound” (NISSAN CHEMICAL INDUSTRIES, LTD., priority 2013, dated 2017)
